Assay results taken from article PMC12154787, “Comprehensive Evaluation of the Effects of Hot Air Drying Temperature on the Chemical Composition, Flavor Characteristics and Biological Activity of Houttuynia cordata Thunb” (Foods, 2025).

Legend:
[1] = Pharmacokinetics of HCT constituents in rat plasma after a single dose of HCT extract; format: in vivo, SD rats
Procedure: The quantification of target compounds was conducted using an LC-TQ5200 triple quadrupole mass spectrometer (Hexin Instruments, Guangzhou, China) coupled with a HILIC column (100 × 2.1 mm, 1.8 μm; ANPEL, Shanghai, China). Chromatographic separation was achieved under isocratic conditions with a mobile phase comprising (A) 0.1% formic acid in water and (B) acetonitrile (50:50, v/v) for 4 min at a flow rate of 0.3 mL/min. The column temperature was maintained at 30 °C with a 10 μL injection volume.
Mass spectrometric detection was performed in positive electrospray ionization (ESI) mode with multiple reaction monitoring (MRM). The optimized ion source parameters were as follows: drying gas temperature, 500 °C; spray voltage, 5500 V; nebulizer gas pressure, 70 psi (482.3 kPa); drying gas flow, 8 L/min; and curtain gas flow, 3 L/min. The collision cell operated with 0.4 mL/min collision gas flow under the following voltage settings: curtain plate 800 V, orifice 70 V, detector 2300 V, with cell entrance and exit voltages of 30 V and 1 V, respectively. All analyses were performed with three replicates (n = 3).
(§1) The animal study protocol was approved by the Animal Ethics Committee of Jiangxi University of Chinese Medicine (Approval No. TEMPOR20230112). A total of 24 female SD rats (200 ± 20 g) were obtained from the Laboratory Animal Center of Jiangxi University of Chinese Medicine (Nanchang, China). Prior to experimentation, the rats were acclimated for 7 days in an air-conditioned room maintained at 24 ± 1 °C with a 12 h light/dark cycle. After one week of acclimatization with ad libitum access to sterilized food and water, the rats were randomly divided into three groups (n = 8), including a negative control, FDH: freeze-dried HCT extract (treated with 600 mg/kg BW freeze-dried HCT extracts), 50H: 50 °C hot-air dried HCT extract (treated with 600 mg/kg BW 50 °C hot-air dried HCT extracts). Blood collection and the pretreatment of serum were conducted following our previously published protocols. The identification and quantification of metabolites in rat samples were performed using analytical methodologies consistent with those employed in our previous investigations.

[2] = Metabolite identification in rat serum by UPLC-LTQ-Orbitrap-MS2 after HCT extract; format: in vivo, SD rats; conditions: for Metabolite detected in Serum, 50H: 50H group (600 mg/kg BW 50 °C hot-air dried HCT extract); for Metabolite detected in Serum, FDH: FDH group (600 mg/kg BW freeze-dried HCT extract); on all read-outs here: key: +: detected; —: undetected
Procedure: The chromatographic separation was performed on an ACQUITY UPLC BEH C18 column (2.1 × 100 mm, 1.7 μm) maintained at 25 °C. […] The mobile phase flow rate was maintained at 300 μL/min with a 2 μL injection volume.
Mass spectrometric detection was carried out using an LTQ-Orbitrap system equipped with a HESI-II source operating in both positive and negative ionization modes. Full scan MS data were acquired over m/z 50–2000 with mass resolution set to 30,000 (at m/z 400). For structural elucidation, data-dependent MS/MS scans were triggered using a normalized collision energy of 45 eV in the CID cell. The diode array detector was simultaneously monitored at 280 nm and 320 nm. All instrumental operations and data acquisition were controlled by Xcalibur v2.0 software (Thermo Scientific).
as §1, with “Prior to experimentation, the rats were acclimated for 7 days in an air-conditioned room maintained at 24 ± 1 °C with a 12 h light/dark cycle.” left out

[3] = female, SD, 50H: 600 mg/kg BW 50 °C hot-air dried HCT extract
[4] = female, SD, rat, plasma, 600 mg/kg, 50H: 600 mg/kg BW 50 °C hot-air dried HCT extract
[5] = female, SD, rat, plasma, 600 mg/kg, FDH: 600 mg/kg BW freeze-dried HCT extract
[6] = 50H: 600 mg/kg BW 50 °C hot-air dried HCT extract

Structure (SMILES)	Metabolite detected in Serum, 50H [2]	Metabolite detected in Serum, FDH [2]	AUC [1, 4]	AUC [1, 5]	Cmax [1, 5]	also measured
O=C(/C=C/c1ccc(O)c(O)c1)O[C@@H]1C[C@](O)(C(=O)O)C[C@@H](O)[C@H]1O [Chlorogenic acid, chlorogenic acid]			0.222 ± 0.0225 µM·h	0.231 ± 0.00787 µM·h	104 ± 9.47 nM	Tmax [1, 3]: 1.5 h; Cmax [1, 4]: 84.4 ± 2.26 nM; half-life [1, 4]: 2.05 ± 0.62 h; half-life [1, 5]: 2.25 ± 0.7 h
O=C(O)c1ccc(O)c(O)c1 [M2, protocatechuic acid]	+	+				
COc1cc(C(=O)O)ccc1OC(C)=O [M3, 4-acetyloxy-3-methoxybenzoic acid]	+	+				
Nc1ccc(CCC(=O)O)c(C(=O)O)c1 [M14]	+	+				
COc1c(O)cc2oc(-c3ccc(O)cc3)cc(=O)c2c1O [M18, hispidulin]		+				
O=c1c(O)c(-c2ccc(O)c(O)c2)oc2cc(O)cc(O)c12 [Quercetin, quercetin]			2.32 ± 0.0574 µM·h	2.551 ± 0.017 µM·h	410 ± 12 nM	Cmax [1, 6]: 378 ± 21.4 nM; T1/2 [1, 6]: 7.28 ± 4.47 h; T1/2 ([1]; FDH: 600 mg/kg BW freeze-dried HCT extract): 4.46 ± 0.14 h; Tmax [1, 3]: 2 h
C[C@@H]1O[C@@H](OC[C@H]2O[C@@H](Oc3c(-c4ccc(O)c(O)c4)oc4cc(O)cc(O)c4c3=O)[C@H](O)[C@@H](O)[C@@H]2O)[C@H](O)[C@H](O)[C@H]1O [Rutin, rutin]			0.277 ± 0.0123 µM·h	0.328 ± 0.00568 µM·h	136 ± 16 nM	Tmax [1, 3]: 1 h; Cmax [1, 4]: 125 ± 4.95 nM; half-life [1, 4]: 2.04 ± 0.5 h; half-life [1, 5]: 2.61 ± 1.23 h
O=C(O)[C@H]1O[C@@H](Oc2cc3oc(-c4ccc(O)cc4)cc(=O)c3c(O)c2O)[C@H](O)[C@@H](O)[C@@H]1O [Scutellarin, scutellarin]			0.121 ± 0.00462 µM·h	0.116 ± 0.00702 µM·h	23.9 ± 3.17 nM	Tmax ([1]; female, SD, FDH: 600 mg/kg BW freeze-dried HCT extract): 1.5 h; Cmax [1, 4]: 22 ± 4.15 nM; half-life [1, 4]: 9.26 ± 4.35 h; half-life [1, 5]: 6.91 ± 0.65 h

Further lines, with some results ahead:

Metabolite detected in Serum, 50H [2]	Metabolite detected in Serum, FDH [2]	Structure (SMILES)	AUC [1, 4]	AUC [1, 5]	Cmax [1, 5]	also measured
+	+	O=C(O)CCc1ccc(O)c(O)c1 [M10, dihydrocaffeic acid]				
+		CC(O)CC(=O)O (stereo not shown) [M13, 3-hydroxybutyrate]				
	+	O=c1cc(-c2ccc(O)cc2)oc2cc(O)cc(O)c12 [M23, apigenin]				
+	+	CCCCCCCCCC(=O)CC(=O)O [M27, decanoyl acetic acid]				
+	+	CCCCCCCCC=CCCCCCCCC(=O)O [M37, 9-octadecenoic acid]				
